Results on nine compounds are retold here after patent US10004701B2, “Methods and compositions for treating infection” (UNIVERSITY OF ROCHESTER, priority 2012, dated 2018).

Counter-ions that a name gives are not always drawn. Like-named read-outs stand apart in the source and are kept apart here.

Experiment in all cases: AK assay 384-well format, Prestwick library screening
For test [1], the system named is A. baumannii strain 98-37-09. It is filed as cell-based, Acinetobacter baumannii. Conditions: 50 μM final drug concentration; for fold induction at 50 µM: Acinetobacter baumannii, 983709, 3 h.
The subject of test [2] is S. aureus strain USA300-0114. In kind it is cell-based, Staphylococcus aureus. Conditions: 50 μM final drug concentration; for fold induction at 50 µM: Staphylococcus aureus, USA300, 3 h.
Test [3] deals with E. cloacae. It is filed as cell-based, Enterobacter cloacae. Conditions: 50 μM final drug concentration; for fold induction at 50 µM: Enterobacter cloacae, 3 h.
The subject of test [4] is P. aeruginosa. It is filed as cell-based, Pseudomonas aeruginosa. Conditions: 50 μM final drug concentration; for fold induction at 50 µM: Pseudomonas aeruginosa, 3 h.
Test [5] has as its system K. pneumoniae. In kind it is cell-based, Klebsiella pneumoniae. Conditions: 50 μM final drug concentration; for fold induction at 50 µM: Klebsiella pneumoniae, 3 h.
Test [6] relates to E. coli. In kind it is cell-based, Escherichia coli. Conditions: 50 μM final drug concentration; for fold induction at 50 µM: Escherichia coli, 3 h.
Test [7] concerns E. faecium. It is filed as cell-based, Enterococcus faecium. Conditions: 50 μM final drug concentration; for fold induction at 50 µM: Enterococcus faecium, 3 h.
Setting [8] is: planktonic A. baumannii, 384-well, cutoff for positive-scoring molecules 3-fold increase, read-out: AK-based Prestwick Library Screening Results: A. baumannii (increase in extracellular AK activity).
[9] abbreviates: planktonic S. aureus, 384-well, cutoff for positive-scoring molecules 3-fold increase, read-out: AK-based Prestwick Library Screening Results: S. aureus (increase in extracellular AK activity).
Setting [10] is: planktonic E. cloacae, 384-well, cutoff for positive-scoring molecules 3-fold increase, read-out: AK-based Prestwick Library Screening Results: E. cloacae (increase in extracellular AK activity).
Where [11] appears, read: planktonic P. aeruginosa, 384-well, cutoff for positive-scoring molecules 3-fold increase, read-out: AK-based Prestwick Library Screening Results: P. aeruginosa (increase in extracellular AK activity).
[12] abbreviates: planktonic K. pneumoniae, 384-well, cutoff for positive-scoring molecules 3-fold increase, read-out: AK-based Prestwick Library Screening Results: K. pneumoniae (increase in extracellular AK activity).
The mark [13] stands for this setting: planktonic E. coli, 384-well, cutoff for positive-scoring molecules 3-fold increase, read-out: AK-based Prestwick Library Screening Results: E. coli (increase in extracellular AK activity).
Where [14] appears, read: planktonic E. faecium, 384-well, cutoff for positive-scoring molecules 3-fold increase, read-out: AK-based Prestwick Library Screening Results: E. faecium (increase in extracellular AK activity).
The mark [15] stands for this setting: planktonic, cutoff for positive-scoring molecules 3-fold increase, read-out: AK-based Prestwick Library Screening Results, A. baumannii (fold increase in extracellular AK activity).
The mark [16] stands for this setting: planktonic, cutoff for positive-scoring molecules 3-fold increase, read-out: AK-based Prestwick Library Screening Results, S. aureus (fold increase in extracellular AK activity).
Where [17] appears, read: planktonic, cutoff for positive-scoring molecules 3-fold increase, read-out: AK-based Prestwick Library Screening Results, E. cloacae (fold increase in extracellular AK activity).
The mark [18] stands for this setting: planktonic, cutoff for positive-scoring molecules 3-fold increase, read-out: AK-based Prestwick Library Screening Results, P. aeruginosa (fold increase in extracellular AK activity).
Where [19] appears, read: planktonic, cutoff for positive-scoring molecules 3-fold increase, read-out: AK-based Prestwick Library Screening Results, K. pneumoniae (fold increase in extracellular AK activity).
Setting [20] is: planktonic, cutoff for positive-scoring molecules 3-fold increase, read-out: AK-based Prestwick Library Screening Results, E. coli (fold increase in extracellular AK activity).
[21] abbreviates: planktonic, cutoff for positive-scoring molecules 3-fold increase, read-out: AK-based Prestwick Library Screening Results, E. faecium (fold increase in extracellular AK activity).

In the case of `Clc1ccc(CCC(Cn2ccnc2)Sc2c(Cl)cccc2Cl)cc1` (stereo not drawn) [Butoconazole nitrate], the fold induction at 50 µM in test [1] (setting [8]) amounted to 2; in test [2] (setting [9]), 0.6; in test [3] (setting [10]) it was 0.5; in test [4] (setting [11]) it was 0.5; in test [5] (setting [12]), 0.7; in test [6] (setting [13]) it was 0.7. Further, in test [7] (setting [14]), the fold induction at 50 µM came to 3.3.
With `C=C(C)[C@@H]1[C@H]2OC(=O)[C@@H]1[C@]1(O)C[C@H]3O[C@]34C(=O)O[C@H]2[C@]14C` [Picrotoxinin], the fold induction at 50 µM in test [1] (planktonic, […], read-out: AK-based Prestwick Library Screening Results, A. baumannii (fold increase in extracellular AK activity)) amounted to 0.7; in test [2] (planktonic, […], read-out: AK-based Prestwick Library Screening Results, S. aureus (fold increase in extracellular AK activity)) it was 0.6; in test [3] (planktonic, […], read-out: AK-based Prestwick Library Screening Results, E. cloacae (fold increase in extracellular AK activity)), 0.7; in test [4] (planktonic, […], read-out: AK-based Prestwick Library Screening Results, P. aeruginosa (fold increase in extracellular AK activity)), 0.6; in test [5] (planktonic, […], read-out: AK-based Prestwick Library Screening Results, K. pneumoniae (fold increase in extracellular AK activity)) it was 0.6; in test [6] (planktonic, […], read-out: AK-based Prestwick Library Screening Results, E. coli (fold increase in extracellular AK activity)) it was 0.6. Also, the fold induction at 50 µM in test [7] (planktonic, […], read-out: AK-based Prestwick Library Screening Results, E. faecium (fold increase in extracellular AK activity)) came to 1.
Regarding `Cc1cc(=O)n(-c2ccccc2)n1C` [Antipyrine], the fold induction at 50 µM in test [1] (384-well format, […], read-out: AK-based Prestwick Library Screening Results, A. baumannii (increase in extracellular AK activity)) stood at 1; in test [2] (384-well format, […], read-out: AK-based Prestwick Library Screening Results, S. aureus (increase in extracellular AK activity)) it was 0.7; in test [3] (384-well format, […], read-out: AK-based Prestwick Library Screening Results, E. cloacae (increase in extracellular AK activity)) it was 1; in test [4] (384-well format, […], read-out: AK-based Prestwick Library Screening Results, P. aeruginosa (increase in extracellular AK activity)), 0.8; in test [5] (384-well format, […], read-out: AK-based Prestwick Library Screening Results, K. pneumoniae (increase in extracellular AK activity)), 0.7; in test [6] (384-well format, cutoff for positive-scoring molecules 3-fold increase, read-out: AK-based Prestwick Library Screening Results, E. coli (increase in extracellular AK activity)) it was 0.9. Besides, the fold induction at 50 µM in test [7] (384-well format, […], read-out: AK-based Prestwick Library Screening Results, E. faecium (increase in extracellular AK activity)) is 1.
As for `O=C(NCC1CCCCN1)c1cc(OCC(F)(F)F)ccc1OCC(F)(F)F` (stereo not drawn) [Flecainide acetate], the fold induction at 50 µM was 0.8 in test [1] (setting [15]); 0.7 in test [2] (setting [16]); 0.7 in test [3] (setting [17]); 0.6 in test [4] (setting [18]); 0.6 in test [5] (setting [19]); 0.6 in test [6] (setting [20]). The fold induction at 50 µM in test [7] (setting [21]) is 0.9.
For `CCCCOC(=O)c1ccc(N)cc1` [Butamben], the fold induction at 50 µM in test [1] (setting [15]) came out at 0.7; in test [2] (setting [16]) it was 1.1; in test [3] (setting [17]) it was 1.7; in test [4] (setting [18]) it was 0.9; in test [5] (setting [19]), 0.6; in test [6] (setting [20]), 0.8. Besides, the fold induction at 50 µM in test [7] (setting [21]) worked out at 0.8.
Regarding `CC(C)NCC(O)c1ccc(O)c(O)c1.Cl` (single isomer, unassigned; (-)) [(−)-Isoproterenol hydrochloride], the “AK-based Prestwick library screening result, A. baumannii (fold increase in extracellular AK activity)” value in test [1] (planktonic A. baumannii, positive cutoff 3-fold increase) is 0.9. The “AK-based Prestwick library screening result, S. aureus (fold increase in extracellular AK activity)” value in test [2] (planktonic S. aureus, positive cutoff 3-fold increase) was determined as 0.9. The “AK-based Prestwick library screening result, E. cloacae (fold increase in extracellular AK activity)” value in test [3] (planktonic E. cloacae, positive cutoff 3-fold increase) was 2.3. Further, the “AK-based Prestwick library screening result, P. aeruginosa (fold increase in extracellular AK activity)” value in test [4] (planktonic P. aeruginosa, positive cutoff 3-fold increase) was found to be 1.1. The “AK-based Prestwick library screening result, K. pneumoniae (fold increase in extracellular AK activity)” value in test [5] (planktonic K. pneumoniae, positive cutoff 3-fold increase) is reported as 1.2. The “AK-based Prestwick library screening result, E. coli (fold increase in extracellular AK activity)” value in test [6] (planktonic E. coli, positive cutoff 3-fold increase) is listed as 1.2. In test [7] (planktonic E. faecium, positive cutoff 3-fold increase), the “AK-based Prestwick library screening result, E. faecium (fold increase in extracellular AK activity)” value is given as 0.9.
Take `CO[C@@H]1[C@@H](O[C@@H]2O[C@H](C)[C@@H](O[C@H]3C[C@@](C)(O)[C@@H](OC(=O)CC(C)C)[C@H](C)O3)[C@H](N(C)C)[C@H]2O)[C@@H](CC=O)C[C@@H](C)[C@@H](O)/C=C/C=C/C[C@@H](C)OC(=O)C[C@H]1OC(C)=O` [Josamycin]: the fold induction at 50 µM in test [1] (setting [8]) came to 1.1; in test [2] (setting [9]) it was 8.4; in test [3] (setting [10]) it was 1.4; in test [4] (setting [11]), 0.9; in test [5] (setting [12]), 1; in test [6] (setting [13]), 1.3. Besides, the fold induction at 50 µM in test [7] (setting [14]) was 1.
In the case of `CCOC(=O)[C@@](C)(N)Cc1ccc(O)c(O)c1` [Methyldopate hydrochloride], the fold induction at 50 µM in test [1] (planktonic A. baumannii, positive cutoff 3-fold increase, read-out: AK-based Prestwick library screening result, A. baumannii (fold increase in extracellular AK activity)) was determined as 1.4; in test [2] (planktonic S. aureus, positive cutoff 3-fold increase, read-out: AK-based Prestwick library screening result, S. aureus (fold increase in extracellular AK activity)) it was 1.2; in test [3] (planktonic E. cloacae, positive cutoff 3-fold increase, read-out: AK-based Prestwick library screening result, E. cloacae (fold increase in extracellular AK activity)) it was 1.8; in test [4] (planktonic P. aeruginosa, positive cutoff 3-fold increase, read-out: AK-based Prestwick library screening result, P. aeruginosa (fold increase in extracellular AK activity)), 1.1; in test [5] (planktonic K. pneumoniae, positive cutoff 3-fold increase, read-out: AK-based Prestwick library screening result, K. pneumoniae (fold increase in extracellular AK activity)), 1.2; in test [6] (planktonic E. coli, positive cutoff 3-fold increase, read-out: AK-based Prestwick library screening result, E. coli (fold increase in extracellular AK activity)), 1.2. Further, the fold induction at 50 µM in test [7] (planktonic E. faecium, positive cutoff 3-fold increase, read-out: AK-based Prestwick library screening result, E. faecium (fold increase in extracellular AK activity)) is 1.1.
For `COc1ccc2[nH]c3c(c2c1)CCN=C3C` [Methoxy-6-harmalan], the “AK-based Prestwick Library Screening Results, A. baumannii (fold increase in extracellular AK activity)” value in test [1] (planktonic, […]) was determined as 1.3. Besides, the “AK-based Prestwick Library Screening Results, S. aureus (fold increase in extracellular AK activity)” value in test [2] (planktonic, […]) worked out at 0.8. Further, the “AK-based Prestwick Library Screening Results, E. cloacae (fold increase in extracellular AK activity)” value in test [3] (planktonic, […]) was 1.4. Further, the “AK-based Prestwick Library Screening Results, P. aeruginosa (fold increase in extracellular AK activity)” value in test [4] (planktonic, […]) is reported as 1.2. For the same compound, the “AK-based Prestwick Library Screening Results, K. pneumoniae (fold increase in extracellular AK activity)” value in test [5] (planktonic, […]) was determined as 1.0. In test [6] (planktonic, […]), the “AK-based Prestwick Library Screening Results, E. coli (fold increase in extracellular AK activity)” value is 1.4. Further, the “AK-based Prestwick Library Screening Results, E. faecium (fold increase in extracellular AK activity)” value in test [7] (planktonic, […]) is recorded as 1.0.
